Here are results for four compounds from patent US20150018361A1, “ANTI-TUMOR ACTIVITY OF REDUCED FOLATES LIKE METHYLENE-TETRAHYDROFOLATE” (ISOFOL MEDICAL AB, priority 2012, published 2015).

Each structure is given as a SMILES string. “Also recorded” adds a separate entry of the source.

The conditions of data set [1]: in the body; no species or test given; cited from earlier work.
A short description of data set [2]: Body weight development / tolerability in the HCT116 xenograft study. It is filed as in vivo, female NCr nu/nu mice. The following applies: intraperitoneal. How it is done:
(§1) Study design: A total of 30 female NCr nu/nu mice (10 per group) at the age of 8-12 weeks were injected with 5×10^6 HCT116 tumor cells in 0% Matrigel sc in flank. When the tumors reached an average size of […] they were administered with intraperitoneal injections of vehicle or [6R]-methylene-THF (Modufolin®), according to the schedule in table 1. Animals were monitored individually. The endpoint of the experiment was when a tumor weight of 1300 mm3 or 65 days was reached, whichever came first. Responders could be followed longer. When the endpoint was reached, the animals were euthanized. Body weight (bw) (g) and tumor volume (mm3) was measured on days 1, 2 (bw only), 3 (bw only), 4, 5 (bw only), 7, 11, 14, 18, 21, 25, 28, 32, 35, 39, 42, 49, 53, 56, 60 and 63.
Body weight gives an indication on how severe the side effects of the treatment are, poor development of body weight indicating more adverse side effects.

The subject of data set [3] is HCT116 colorectal carcinoma xenograft. The data set is described as follows: Anti-tumoral efficacy in the HCT116 colorectal carcinoma xenograft model (tumor volume). Conditions: intraperitoneal, 45 mg/kg or 1.7 mg/kg qd x 21, both high and low dose. It counts as in vivo, female NCr nu/nu mice. Here is the method:
Purpose: To determine the anti-tumoral efficacy of [6R]-methylene-THF in the HCT116 colorectal carcinoma xenograft model. The HCT116 colorectal carcinoma cell line is sensitive to 5-FU and its analog capecitabine.
as §1

Turning to `Nc1nc2c(c(=O)[nH]1)NC(CNc1ccc(C(=O)N[C@@H](CCC(=O)O)C(=O)O)cc1)CN2` (stereo partly shown) [THF, tetrahydrofolic acid], the half life result in data set [1] is reported as “approximately 30 min”.

`Nc1nc2c(c(=O)[nH]1)N1CN(c3ccc(C(=O)N[C@@H](CCC(=O)O)C(=O)O)cc3)C[C@H]1CN2` [[6R]-methylene-THF, [6R]-5,10-methylenetetrahydrofolic acid]: the “effect on animal weight” value in data set [2] (high-dose (45 mg/kg, qd x 21)) was “in line with the vehicle group”; in data set [2] (low-dose (1.7 mg/kg, qd x 21)), “positive effect on animal weight”. Moreover, the “body weight development compared to the vehicle group” value in data set [2] (qd x 21, both dose groups overall) is given as “slightly positive body weight development”. In data set [3], the “anti-tumor activity (mean tumor volume over time compared to control)” value is given as “marked influence on tumor volume; also recorded: intrinsic antitumor activity”.

Take `CN1c2c(nc(N)[nH]c2=O)NCC1CNc1ccc(C(=O)N[C@@H](CCC(=O)O)C(=O)O)cc1` (stereo partly shown) [methyl-THF, 5-methyl-tetrahydrofolic acid]: the half life result in data set [1] is listed as “approximately 5 hours”.

Consider `Nc1nc2c(c(=O)[nH]1)N1CN(c3ccc(C(=O)N[C@@H](CCC(=O)O)C(=O)O)cc3)CC1CN2` (stereo partly shown) [methylene-THF, 5,10-methylene-tetrahydrofolic acid], for which, in data set [1], the half life result is “approximately 20 min”.
